Laboratory results: article PMC8588271 (Molecules, 2021)
“Also recorded” adds a separate entry of the source.

Columns and labels:
[1] = DPPH radical scavenging assay (in vitro); details: 0.1 mM DPPH in MeOH, 30 min dark, room temperature, 540 nm
BACE-1 = molecular target: T1, BACE-1 (Homo sapiens, UniProt P56817); assay: BACE-1 FRET inhibition assay; format: biochemical; details: FRET kit, 60 min room temperature, triplicate, tested up to 50 µM
T1 construct: purchased PanVera (Madison, WI, USA) / Thermo Fisher Scientific P2985
Procedure: The experiments were each performed in triplicates for all of the compounds.
A BACE-1 inhibition assay was conducted using a β-Secretase FRET kit (BACE-1, Thermo Fisher Sientific, San Diego, CA, USA) according to manufacturer instructions. […] The sample was diluted further in assay buffer (final concentrations of 50, 25, 12.5, 6.25, 3.12, 1.56, 0.78, 0.39, 0.2, and 0.1 µM in each well) and black 96-well microplates were mixed with 10 µL of BACE-1 substrate. Then, 10 µL of 3 × BACE-1 enzyme was added to each well to start the reaction. Plates were incubated at room temperature in the dark for 60 min. After incubation, 10 µL of 2.5 mM sodium acetate was added to each well to stop the reaction. Finally, multiwell spectrofluorometer instruments were used for a multimode plate reader (Multistkan^TM GO, Thermo Scientific, Waltham, MA, USA) at an excitation wavelength of 545 nm and an emission wavelength of 585 nm. The half-maximal inhibitory concentration (IC50) was calculated by plotting the obtained relative fluorescence unit per hour (RFU/h) against the logarithmic of the inhibitor concentration. All determinations were performed in triplicate.

RAW 264.7 cells [2] = assay: Nitric oxide production (Griess reagent) in LPS-stimulated cells; format: cell-based, murine; details: RAW 264.7, 1 h pretreatment, LPS 0.5 μg/mL 24 h
Procedure: (§1) The macrophage-like murine cell line RAW 264.7 (KCLB number 40071; Korean Cell Line Bank, Seoul, Korea) was cultured in Dulbecco’s Modified Eagle Medium (DMEM, Sigma-Aldrich, St. Louis, MO, USA) supplemented with 10% heat-inactivated fetal bovine serum (FBS, Invitrogen, Burlington, ON, Canada) and 1% (w/v) antibiotic–antimycotic solution (Invitrogen, Grand Island, NY, USA) at 5% CO2 and 37 °C.
Nitrite accumulation was used as an indicator of NO production in the medium, and the nitrite level was determined by assaying the culture supernatants for nitrite using the Griess reagent (1% sulfanilamide, 0.1% N-(1-naphathyl)-ethylenediamine dihydrochloride, and 5% phosphoric acid). […] Then, 100 μL of cell culture supernatants were mixed with 100 μL of Griess reagent in a 96-well plate. Sodium nitrite was used to generate a standard curve and the concentration of nitrite was then measured by the absorbance at 540 nm using a microplate reader. All determinations were performed in triplicate.

RAW 264.7 cells [3] = assay: MTT cytotoxicity assay; format: cell-based, murine; details: RAW 264.7, 24 h
Procedure: as §1
Cell cytotoxicity was determined by an MTT (3-(4,5)-dimethylthiazol-2-yl-2,5-diphenyltetrazolium bromide, Amresco, Solon, OH, USA) colorimetric assay. […] After incubation with test substances, MTT solutions (5 μL of a 5 mg/mL concentration in PBS) were added to the wells and incubated for 4 h at 37 °C. Then, treated with 100 μL of fresh DMSO to dissolve the crystals for 10 min, the cells were detected under a microplate reader (Thermo Scientific Inc., San Diego, CA, USA) to measure the absorbance at 570 nm. Relative cell viability was calculated by comparing the absorbance of the untreated control group. All experiments were performed in triplicate.

[4] = Stability in aqueous solution by HPLC purity; format: physicochemical; details: 10 mM in water, room temperature, HPLC UV 254 nm; ramalin started at 98%
Excerpt: Therefore, to improve its stability and BBB penetration capacity, its structure was modified by replacing the phenolic hydroxyl groups at position two with either a methyl group or a fluorine atom and by changing their positions. Thus, several derivatives were obtained. Specifically, RA-2Me, RA-3Me, and RA-4Me were synthesized by changing the position of the methyl group, which is an electron-donating group, and RA-25Me and RA-34Me, with two methyl groups on the phenyl ring, were synthesized by introducing an extra methyl group. To investigate the effect of fluorine atoms, which are electron-withdrawing as opposed to the methyl group, RA-2F, RA-4F, RA-24F, and RA-pentafluoride (PF) were also successfully synthesized. […] AD-related therapeutic agents are required to penetrate the BBB and reach their target. […] Given that ramalin and its derivatives are water-soluble low-molecular-weight compounds and that their lipophilicities and hydrophilicities balance out, their influence on AlogP, which indicates lipophilicity, was not significant. Additionally, given their PSA values (90 Å^2 < PSA < 140 Å^2), they are considered to be advantageous in terms of BBB penetration.

T1 sequence (P56817 46-501): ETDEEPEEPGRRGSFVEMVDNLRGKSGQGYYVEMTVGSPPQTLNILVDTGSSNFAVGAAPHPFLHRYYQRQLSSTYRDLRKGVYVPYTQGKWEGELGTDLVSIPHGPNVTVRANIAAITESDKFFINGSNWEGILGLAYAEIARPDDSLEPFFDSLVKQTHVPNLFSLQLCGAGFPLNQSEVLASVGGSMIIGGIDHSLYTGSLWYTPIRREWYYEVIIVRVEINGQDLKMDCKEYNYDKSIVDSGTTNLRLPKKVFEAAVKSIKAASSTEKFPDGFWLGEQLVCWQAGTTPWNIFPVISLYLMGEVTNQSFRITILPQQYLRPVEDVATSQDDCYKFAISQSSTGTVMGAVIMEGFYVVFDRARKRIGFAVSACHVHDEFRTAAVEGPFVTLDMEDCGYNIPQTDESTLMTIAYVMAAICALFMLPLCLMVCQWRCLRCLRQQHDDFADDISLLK

| IC50 [1] [µM] | IC50 (BACE-1) [µM] | Purity after 14 h in water [4] [%] | Structure (SMILES) | NO inhibitory (anti-inflammatory) activity (RAW 264.7 cells [2]) | Cytotoxicity (cell viability, MTT) (RAW 264.7 cells [3]) |
| --- | --- | --- | --- | --- | --- |
| 4.42 | 18.8 ± 3.86 |  | N[C@@H](CCC(=O)NNc1ccccc1F)C(=O)O [RA-2F, N^5-((2-Fluorophenyl)amino)-L-glutamine] | concentration-dependent NO inhibition |  |
| 4.46 | 13.1 ± 1.52 |  | Cc1ccc(NNC(=O)CC[C@H](N)C(=O)O)cc1C [RA-34Me, N^5-((3,4-Dimethylphenyl)amino)-L-glutamine] | concentration-dependent NO inhibition |  |
| 4.5 | 9.81 ± 1.21 |  | Cc1ccc(C)c(NNC(=O)CC[C@H](N)C(=O)O)c1 [RA-25Me, N^5-((2,5-Dimethylphenyl)amino)-L-glutamine] | concentration-dependent NO inhibition |  |
|  | 14.6 ± 6.08 |  | N[C@@H](CCC(=O)NNc1c(F)c(F)c(F)c(F)c1F)C(=O)O [RA-PF, N^5-((Perfluorophenyl)amino)-L-glutamine] | concentration-dependent NO inhibition |  |
| 5.3 | 22.5 ± 0.69 |  | Cc1cccc(NNC(=O)CC[C@H](N)C(=O)O)c1 [RA-3Me, N^5-(m-Tolylamino)-L-glutamine] | weak anti-inflammatory effects |  |
| 5.32 |  |  | N[C@@H](CCC(=O)NNc1ccc(F)cc1F)C(=O)O [RA-24F, N^5-((2,4-Difluorophenyl)amino)-L-glutamine] | concentration-dependent NO inhibition; also recorded: stronger anti-inflammatory effect than ramalin | without cytotoxicity |
| 2.79 | 15 ± 4.92 |  | Cc1ccccc1NNC(=O)CC[C@H](N)C(=O)O [RA-2Me, N^5-(o-Tolylamino)-L-glutamine] | weak anti-inflammatory effects |  |
|  |  | 83 | NC(CCC(=O)NNc1ccccc1O)C(=O)O (stereo not drawn) [Ramalin, ramalin] |  |  |
| 4.16 | 20.1 ± 4.78 |  | N[C@@H](CCC(=O)NNc1ccc(F)cc1)C(=O)O [RA-4F, N^5-((4-Fluorophenyl)amino)-L-glutamine] | concentration-dependent NO inhibition |  |

| Structure (SMILES) | IC50 [1] [µM] | IC50 (BACE-1) [µM] | Purity after 14 h in water [4] [%] | NO inhibitory (anti-inflammatory) activity (RAW 264.7 cells [2]) | Cytotoxicity (cell viability, MTT) (RAW 264.7 cells [3]) |
| --- | --- | --- | --- | --- | --- |
| Cc1ccc(NNC(=O)CC[C@H](N)C(=O)O)cc1 [RA-4Me, N^5-(p-Tolylamino)-L-glutamine] | 3.91 | 13 ± 1.62 |  | weak anti-inflammatory effects |  |
